One series concerns STAT3 phosphorylation. Briefly: STAT3 phosphorylation by immunoblot in cancer cells with persistently activated STAT3. The format is cell-based, human. Particulars: 24 h.
From the text: (§1) The cell extract were processed for immunoblotting using specific antibodies. GAPDH was used as loading control.
(§2) The cell extracts were processed for immunoblotting using specific antibodies. GAPDH was used as loading control.
(§3) GAPDH was used as loading control.
as §2
For orientation: A western blot detects proteins with antibodies after separation by electrophoresis.

The subject of series [1] is ERK1/2, PKC-δ, mTOR, p70S6K, and AKT phosphorylation. Briefly: Phosphorylation of other kinases by immunoblot in breast cancer cells. In kind it is cell-based, human. The following applies: MDA-MB-231 and MDA-MB-468 cells, 24 h.
From the text: as §1, §2

Series [2] relates to cells with persistent expression of p-STAT3. The series is described as follows: Apoptosis (cleaved caspase-3 immunoblot) in cancer cells. The format is cell-based, human. The following applies: 24 h.
From the text: as §1, §2, §3, §2, §2

In series [3] the test system is normal human pancreatic duct epithelial cells, normal human lung fibroblasts, normal human mammary epithelial cells. The series is described as follows: Apoptosis (cleaved caspase-3 immunoblot) in normal human cells. Particulars: HPDE, HMEC and normal human lung fibroblasts; 24 h.
From the text: as §2

The test system of series [4] is downstream targets of STAT3. Briefly: Expression of downstream targets of STAT3 by immunoblot. The following applies: both breast cancer cell lines (MDA-MB-231, MDA-MB-468). In kind it is cell-based, human.
From the text: as §1, §2, §3, §2

For series [5], the system named is STAT3 DNA binding activity. The series is described as follows: STAT3 DNA binding activity (STAT3 Transcription Factor Kit). The format is cell-based, human. Particulars: MDA-MB-231 cells; 10 μM, 24 h. As to the method: Cells were treated with the compounds or DMSO (control) for 24 h. The cell extract were analyzed for STAT3 binding activity using STAT3 Transcription Factor Kit.
(§4) Cells were treated with FLLL31 (10 μM) or DSMO (control) for 24 h. The cell extracts were analyzed for STAT3 DNA binding activity using STAT3 and STAT1 Transcription Factor Kits.

The test system of series [6] is STAT1 DNA binding activity. Briefly: STAT1 DNA binding activity (STAT1 Transcription Factor Kit). In kind it is cell-based, human. Particulars: MDA-MB-231 cells; 10 μM, 24 h. How it is done:
as §4

Series [7] relates to STAT3 dependent luciferase activity. The series is described as follows: STAT3-dependent transcriptional luciferase activity (pLucTKS3). In kind it is cell-based, human. The following applies: MDA-MB-231 cells stably transfected with pLucTKS3; 1-10 μmol/L, 24 hours. How it is done:
Cells were incubated with the compounds for 24 h and were then harvested for luciferase activity analysis.
Expression of luciferase is thus contingent upon the phosphorylation and activation of STAT3.

Series [8] has as its system eight cancer cell lines with elevated levels of STAT3 phosphorylation. Briefly: Anti-proliferative activity in a panel of eight cancer cell lines. In kind it is cell-based, human.
In a further series the target is JAK2 kinase (Homo sapiens, UniProt O60674). Briefly: JAK2 kinase assay (HTScan JAK2 kinase assay kit). Particulars: at 10 μM.

SMILES strings stand for the structures.

JAK2 kinase, sequence (O60674 whole entry): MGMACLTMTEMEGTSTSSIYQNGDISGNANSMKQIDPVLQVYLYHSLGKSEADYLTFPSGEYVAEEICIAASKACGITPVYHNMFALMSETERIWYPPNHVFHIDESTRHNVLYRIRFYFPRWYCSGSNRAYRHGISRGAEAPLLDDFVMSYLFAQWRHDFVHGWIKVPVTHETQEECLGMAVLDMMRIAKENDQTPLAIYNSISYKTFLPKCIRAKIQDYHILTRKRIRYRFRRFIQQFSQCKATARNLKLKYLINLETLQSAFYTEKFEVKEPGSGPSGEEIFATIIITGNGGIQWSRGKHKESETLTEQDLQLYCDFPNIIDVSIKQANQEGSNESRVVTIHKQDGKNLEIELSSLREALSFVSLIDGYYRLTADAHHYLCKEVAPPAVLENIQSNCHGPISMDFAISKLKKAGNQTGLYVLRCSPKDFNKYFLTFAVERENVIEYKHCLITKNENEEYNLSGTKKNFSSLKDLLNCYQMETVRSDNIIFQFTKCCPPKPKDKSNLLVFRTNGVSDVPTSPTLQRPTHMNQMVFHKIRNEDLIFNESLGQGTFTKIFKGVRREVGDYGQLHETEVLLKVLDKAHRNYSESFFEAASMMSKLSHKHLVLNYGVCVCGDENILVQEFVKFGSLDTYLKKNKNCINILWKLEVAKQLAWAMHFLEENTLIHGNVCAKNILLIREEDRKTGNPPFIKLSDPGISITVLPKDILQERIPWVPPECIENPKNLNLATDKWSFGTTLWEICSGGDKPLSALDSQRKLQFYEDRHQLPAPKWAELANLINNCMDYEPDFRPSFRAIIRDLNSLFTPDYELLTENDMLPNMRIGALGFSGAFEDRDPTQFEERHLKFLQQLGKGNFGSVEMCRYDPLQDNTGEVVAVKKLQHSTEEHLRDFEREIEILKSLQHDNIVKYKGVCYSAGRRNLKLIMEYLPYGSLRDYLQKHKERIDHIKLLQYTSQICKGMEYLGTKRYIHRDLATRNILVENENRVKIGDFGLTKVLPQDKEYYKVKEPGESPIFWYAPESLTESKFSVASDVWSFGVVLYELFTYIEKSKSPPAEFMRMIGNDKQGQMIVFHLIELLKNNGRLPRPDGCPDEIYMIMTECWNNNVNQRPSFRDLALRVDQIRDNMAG
Description for JAK2 kinase: JAK2 kinase assay was performed using a HTScan JAK2 kinase assay kit.

As to `COc1ccc(/C=C/C(=O)C(C)(C)C(=O)/C=C/c2ccc(OC)c(OC)c2)cc1OC` [FLLL31], in the series with STAT3 phosphorylation (MDA-MB-231 breast cancer cells, 2.5 and 5 μM), the “inhibition of STAT3 phosphorylation” value was “inhibited STAT3 phosphorylation”. For the same molecule, the “inhibition of STAT3 phosphorylation” value with STAT3 phosphorylation (MDA-MB-468 breast cancer cells, 2.5, 5 and 10 μM) was “inhibited STAT3 phosphorylation”. In addition, the “effects on ERK1/2, PKC-δ, mTOR, p70S6K, and AKT phosphorylation” value in series [1] is given as “little effects”. Besides, the “induction of apoptosis (cleavages of caspase-3)” value in [2] (MDA-MB-231 and MDA-MB-468 breast cancer cells) is “induction of apoptosis”. The “induction of apoptosis (cleaved caspase-3)” value in series [2] (PANC-1, BXPC-3 and SK-BR-3 cells, 5 or 10 μM) is on record as “induce apoptosis”. The “induction of apoptosis in normal human cells” value in series [3] is reported as “no apoptosis induction”. Besides, the “down-regulation of cyclin D1” value in series [4] is “down-regulation of cyclin D1”. Further, in series [5], the “inhibition of STAT3 DNA binding activity” value was “statistically significant inhibition” and the “potency of STAT3 DNA binding inhibition relative to curcumin” value was “significantly more potent than curcumin”. In addition, the “selectivity: STAT3 versus STAT1 DNA binding activity” value in series [6] is on record as “inhibit STAT3 but not STAT1 DNA binding activity”. In series [7], the “inhibition of STAT3 dependent luciferase activity” value was “dose-dependent inhibition”. For the same molecule, the “IC50, anti-proliferative activity” value in series [8] (SUM-159, ZR-75-1, BXPC-3, HPAC, PANC-1, SW1990, U373, U266) is “submicromolar”. Besides, the “anti-proliferative potency relative to WP1066, Stattic, S31-201, SD1029 and AG490” value in [8] (panel of eight cancer cell lines) is “more potent than the other inhibitors”.
In the case of `C[C@H](NC(=O)/C(C#N)=C/c1cccc(Br)n1)c1ccccc1` [WP1066, reference compound], the “inhibition of STAT3 phosphorylation” value with STAT3 phosphorylation (U373 human glioblastoma cells, 5 μM) is on record as “inhibit STAT3 phosphorylation”. For the same molecule, the induction of apoptosis result in series [2] (U373 cells, 5 μM) was “induce apoptosis”.
Regarding `COc1cc(C=CC(=O)CC(=O)C=Cc2ccc(O)c(OC)c2)ccc1O` [curcumin, 1,7-bis(4-hydroxy-3-methoxyphenyl)-1,6-heptadien-3,5-dione, reference compound], the “inhibition of STAT3 DNA binding activity” value in [5] is given as “inhibit STAT3 DNA binding activity”. Besides, the JAK2 inhibition entry at JAK2 kinase was “did not show any JAK2 inhibition”.

Source of the values: patent US20120053208A1 (THE OHIO STATE UNIVERSITY RESEARCH FOUNDATION, priority 2009, published 2012).
